Experimental data taken from the supplement of paper PMC10883282.

How the values were obtained:
Test in all cases: standardised AUC of viability dose-response curve (72 h) (fraction (0-1)); higher = less growth inhibition (more resistant)
HT1080 = test system: HT1080
Procedure, shortened: (§1)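 Sarcoma cell lines in 384-well plates were treated in triplicate for 72 h with 2.5 µl of compound dilution series (compound-plate series 10 mM to 0.0002 mM, 1:3 steps). ATPLite viability was scaled 1 (full) to 0 (none) and fitted per drug and cell line with a four-parameter log-logistic model. The standardised area under the dose-response curve in log-dose space (modified drexplorer computeAUC) runs from 1 (no response) to 0 (full response).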

SW872 = test system: SW872
Procedure, shortened: as §1

G401 = test system: G401
Procedure, shortened: as §1

SW684 = test system: SW684
Procedure, shortened: as §1

RD-ES = test system: RD-ES
Procedure, shortened: as §1

SK-LMS-1 = test system: SK-LMS-1
Procedure, shortened: as §1

SW982 = test system: SW982
Procedure, shortened: as §1

KHOS-NP = test system: KHOS-NP
Procedure, shortened: as §1

VA-ES-BJ = test system: VA-ES-BJ
Procedure, shortened: as §1

A204 = test system: A204
Procedure, shortened: as §1

HS729 = test system: HS729
Procedure, shortened: as §1

MES-SA = test system: MES-SA
Procedure, shortened: as §1

SW1353 = test system: SW1353
Procedure, shortened: as §1

RD = test system: RD
Procedure, shortened: as §1

SYO-1 = test system: SYO-1
Procedure, shortened: as §1

KHOS-240S = test system: KHOS-240S
Procedure, shortened: as §1

SK-ES-1 = test system: SK-ES-1
Procedure, shortened: as §1

Structure (SMILES) | standardised AUC (HT1080) | standardised AUC (SW872) | standardised AUC (G401) | standardised AUC (SW684) | standardised AUC (RD-ES) | standardised AUC (SK-LMS-1) | standardised AUC (SW982) | standardised AUC (KHOS-NP) | standardised AUC (VA-ES-BJ) | standardised AUC (A204) | standardised AUC (HS729) | standardised AUC (MES-SA) | standardised AUC (SW1353) | standardised AUC (RD) | standardised AUC (SYO-1) | standardised AUC (KHOS-240S) | standardised AUC (SK-ES-1)
Cc1ccc(NC(=O)c2ccc(CN3CCN(C)CC3)cc2)cc1Nc1nccc(-c2cccnc2)n1 [IMATINIB] | 0.974 | 0.979 | 0.957 | 0.983 | 0.983 | 0.982 | 0.98 | 0.966 | 0.987 | 0.725 | 0.959 | 0.973 | 0.984 | 0.988 | 0.865 | 0.949 | 0.962
N#CCC1(n2cc(-c3ncnc4[nH]ccc34)cn2)CN(C2CCN(C(=O)c3ccnc(C(F)(F)F)c3F)CC2)C1 [ITACITINIB] | 0.977 | 0.922 | 0.968 | 0.983 | 0.975 | 0.948 | 0.974 | 0.946 | 0.948 | 0.965 | 0.853 | 0.977 | 0.95 | 0.997 | 0.867 | 0.96 | 0.969
N#Cc1ccnc(N2C(=O)CC[C@H]2C(=O)N(c2cncc(F)c2)[C@H](C(=O)NC2CC(F)(F)C2)c2ccccc2Cl)c1 [IVOSIDENIB] | 1 | 1 | 0.981 | 0.993 | 0.988 | 0.977 | 0.974 | 0.993 | 0.987 | 0.972 | 0.986 | 0.999 | 0.993 | 0.992 | 0.985 | 0.988 | 0.997
COc1cc2nccc(Oc3ccc(NC(=O)NC4CC4)c(Cl)c3)c2cc1C(N)=O [LENVATINIB] | 0.995 | 0.978 | 0.845 | 0.992 | 0.937 | 0.984 | 0.966 | 1 | 1 | 0.587 | 0.866 | 0.911 | 0.914 | 0.999 | 0.701 | 0.888 | 0.898
C[C@H]1Oc2cc(cnc2N)-c2c(nn(C)c2C#N)CN(C)C(=O)c2ccc(F)cc21 [LORLATINIB] | 0.977 | 0.861 | 0.96 | 0.983 | 0.932 | 0.952 | 0.887 | 0.957 | 0.941 | 0.959 | 0.871 | 0.951 | 0.928 | 0.926 | 0.895 | 0.953 | 0.963
Cc1c(F)cc(C(=O)NC2CC2)cc1-c1ccc(C(=O)NCC(C)(C)C)cn1 [LOSMAPIMOD] | 0.999 | 0.992 | 0.941 | 0.995 | 0.95 | 0.973 | 0.991 | 0.999 | 0.941 | 0.977 | 0.87 | 0.944 | 0.993 | 0.981 | 0.933 | 0.944 | 0.929
CO[C@@H]1[C@H](N(C)C(=O)c2ccccc2)C[C@H]2O[C@]1(C)n1c3ccccc3c3c4c(c5c6ccccc6n2c5c31)C(=O)NC4 [MIDOSTAURIN] | 0.8 | 0.757 | 0.778 | 0.835 | 0.764 | 0.773 | 0.709 | 0.812 | 0.785 | 0.715 | 0.796 | 0.731 | 0.733 | 0.81 | 0.642 | 0.709 | 0.689
Cc1ccc(C(=O)OCc2ccc([C@@H](CN)C(=O)Nc3ccc4cnccc4c3)cc2)c(C)c1 [NETARSUDIL] | 0.952 | 0.893 | 0.949 | 0.926 | 0.914 | 0.886 | 0.91 | 0.951 | 0.985 | 0.85 | 0.966 | 0.857 | 0.855 | 0.923 | 0.884 | 0.828 | 0.921
Cc1cn(-c2cc(NC(=O)c3ccc(C)c(Nc4nccc(-c5cccnc5)n4)c3)cc(C(F)(F)F)c2)cn1 [NILOTINIB] | 0.972 | 0.971 | 0.954 | 1 | 0.949 | 1 | 0.976 | 0.989 | 0.981 | 0.799 | 0.917 | 0.957 | 0.996 | 0.926 | 0.843 | 0.947 | 0.909
NC(=O)c1cccc2cn(-c3ccc([C@@H]4CCCNC4)cc3)nc12 [NIRAPARIB] | 0.999 | 1 | 0.971 | 0.989 | 0.874 | 0.979 | 0.94 | 1 | 0.966 | 0.949 | 0.977 | 0.961 | 0.966 | 0.956 | 0.842 | 0.983 | 0.8
C=CC(=O)Nc1cc(Nc2nccc(-c3cn(C)c4ccccc34)n2)c(OC)cc1N(C)CCN(C)C [OSIMERTINIB] | 0.938 | 0.918 | 0.904 | 0.939 | 0.89 | 0.925 | 0.907 | 0.974 | 0.916 | 0.873 | 0.874 | 0.893 | 0.919 | 0.921 | 0.798 | 0.923 | 0.847
